Here are results for 2 molecules from article PMC4569258.

Each structure is given as a SMILES string. “Also recorded” adds a separate entry of the source. Where only a bound is given, the exact number is not on record here.

Data set [1] deals with T1, pregnane X receptor (PXR) (Homo sapiens, UniProt O75469).
T1 sequence (O75469 1-434): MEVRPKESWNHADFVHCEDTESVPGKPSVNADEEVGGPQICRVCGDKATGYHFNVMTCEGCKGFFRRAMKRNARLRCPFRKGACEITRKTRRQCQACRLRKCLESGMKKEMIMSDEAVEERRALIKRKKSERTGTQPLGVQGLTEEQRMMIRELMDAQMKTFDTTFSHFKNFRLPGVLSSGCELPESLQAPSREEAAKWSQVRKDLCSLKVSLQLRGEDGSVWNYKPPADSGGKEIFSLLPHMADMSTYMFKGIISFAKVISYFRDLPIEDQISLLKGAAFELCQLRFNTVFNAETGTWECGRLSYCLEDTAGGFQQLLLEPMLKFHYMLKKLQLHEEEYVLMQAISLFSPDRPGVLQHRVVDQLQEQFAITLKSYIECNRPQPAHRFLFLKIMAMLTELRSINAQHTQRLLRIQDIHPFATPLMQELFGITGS

The test system of the next data set is CYP2A6 mRNA. The following applies: HH59, HH61, HH63; 24 h; 1, 10, 30 μM.
The next data set has as its system CYP3A4 protein. To be noted: HH59, HH61, HH63; 48 h.
Data set [2] concerns the target T2, aryl hydrocarbon receptor (AhR) (Homo sapiens, UniProt P35869).
T2 sequence (P35869 11-848): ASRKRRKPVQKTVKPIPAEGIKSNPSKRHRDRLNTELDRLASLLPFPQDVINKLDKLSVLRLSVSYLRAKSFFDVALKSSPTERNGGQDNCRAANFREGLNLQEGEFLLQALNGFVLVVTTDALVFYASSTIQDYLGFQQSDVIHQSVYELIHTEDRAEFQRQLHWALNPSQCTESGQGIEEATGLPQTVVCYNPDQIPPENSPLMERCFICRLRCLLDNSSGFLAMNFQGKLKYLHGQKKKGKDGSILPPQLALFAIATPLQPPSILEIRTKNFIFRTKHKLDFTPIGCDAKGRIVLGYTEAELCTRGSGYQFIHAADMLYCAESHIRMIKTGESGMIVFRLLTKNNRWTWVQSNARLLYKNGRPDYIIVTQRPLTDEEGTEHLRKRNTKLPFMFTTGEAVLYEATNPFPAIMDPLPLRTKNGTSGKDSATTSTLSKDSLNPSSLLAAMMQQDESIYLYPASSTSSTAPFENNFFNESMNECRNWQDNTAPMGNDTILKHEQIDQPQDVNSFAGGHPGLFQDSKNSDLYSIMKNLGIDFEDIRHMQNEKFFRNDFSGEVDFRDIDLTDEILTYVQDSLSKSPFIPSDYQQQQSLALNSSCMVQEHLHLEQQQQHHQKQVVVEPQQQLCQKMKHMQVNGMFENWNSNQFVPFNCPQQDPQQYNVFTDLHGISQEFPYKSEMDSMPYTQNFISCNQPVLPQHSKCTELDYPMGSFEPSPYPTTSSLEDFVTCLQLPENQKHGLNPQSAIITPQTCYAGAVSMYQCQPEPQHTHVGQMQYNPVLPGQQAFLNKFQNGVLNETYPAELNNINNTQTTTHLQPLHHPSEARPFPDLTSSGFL
As to the kind of experiment: cell-based.
Protocol: (§3) A stably transfected gene reporter cell line AZ-AHR, derived from human hepatoma HepG2 cells transfected with a construct containing several AhR binding sites upstream of a luciferase reporter gene, was used for assessment of AhR transcriptional activity [20].
(§4) Transcriptional activity of AhR was assessed in human gene reporter cell line AZ-AHR incubated for 24 h with tested compounds.
(§5) AZ-AHR cells were seeded in 96-well plates and stabilized for 16 h and then incubated for 24 h with enantiopure forms of atorvastatin, rosuvastatin and fluvastatin in concentration ranging from 10^−10 M to 10^−4 M in the absence (agonist mode–upper panels) or presence (antagonist mode–lower panels) of dioxin (TCDD; 5 nM). The vehicle was DMSO (0.1% v/v). After the treatments, cells were lysed and luciferase activity was measured. Treatments were performed in triplicates. Data are expressed as a fold induction of luciferase activity over control cells (agonist mode) or as a percentage of maximal activation attained by TCDD (antagonist mode). The values of EC50 and IC50 from n independent cell passages were calculated where appropriate and the average values are indicated in plots. Representative gene reporter assays are shown.

Data set [3] addresses T3, glucocorticoid receptor (GR) (Homo sapiens, UniProt P04150).
T3 sequence (P04150 1-777): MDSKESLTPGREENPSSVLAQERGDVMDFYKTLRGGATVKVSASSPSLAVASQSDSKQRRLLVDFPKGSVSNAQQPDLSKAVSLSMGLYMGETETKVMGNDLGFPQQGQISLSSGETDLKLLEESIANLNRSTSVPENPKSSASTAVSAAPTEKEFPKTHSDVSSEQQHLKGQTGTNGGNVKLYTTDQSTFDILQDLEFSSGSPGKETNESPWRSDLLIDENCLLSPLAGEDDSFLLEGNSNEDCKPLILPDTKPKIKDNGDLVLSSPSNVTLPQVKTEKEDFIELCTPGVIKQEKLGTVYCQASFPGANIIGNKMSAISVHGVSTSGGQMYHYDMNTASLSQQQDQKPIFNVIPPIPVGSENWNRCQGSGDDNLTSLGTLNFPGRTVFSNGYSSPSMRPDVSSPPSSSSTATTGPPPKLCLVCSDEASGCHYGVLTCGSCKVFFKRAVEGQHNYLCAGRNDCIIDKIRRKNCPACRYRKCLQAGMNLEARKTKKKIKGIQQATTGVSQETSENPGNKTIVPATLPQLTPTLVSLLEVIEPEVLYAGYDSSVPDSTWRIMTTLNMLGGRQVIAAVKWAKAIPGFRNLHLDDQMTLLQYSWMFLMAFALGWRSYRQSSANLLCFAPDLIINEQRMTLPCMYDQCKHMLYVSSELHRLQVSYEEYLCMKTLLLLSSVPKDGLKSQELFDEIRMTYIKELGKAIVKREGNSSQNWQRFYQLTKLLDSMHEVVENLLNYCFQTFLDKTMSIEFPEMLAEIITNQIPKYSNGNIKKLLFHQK
Nature of the data set: GR gene reporter assay in AZ-GR cells. It is filed as cell-based. To be noted: antagonist mode, 24 h. How it is done: Transcriptional activity of GR was assessed in human gene reporter cell line AZ-GR incubated for 24 h with tested compounds. […] The vehicle was DMSO (0.1% v/v). […] Treatments were performed in triplicates.

The target in data set [4] is T2, aryl hydrocarbon receptor (AhR). Nature of the data set: AhR gene reporter assay in AZ-AHR cells. To be noted: 24 h; for IC50: AhR antagonist IC50, antagonist mode, in presence of TCDD 5 nM.
Protocol: as §3, §4, §5
The test system of the next data set is CYP2C9. Details: method as in PMID 8737761. The following applies: ratio to (+)3R,5S-fluvastatin; cited from earlier work.
Data set [5] in a line: MTT cytotoxicity test in AZ-GR cells. It is filed as cell-based. The following applies: human, AZ-GR cells (HeLa-derived GR luciferase reporter cell line). On the procedure:
(§1) Prior to gene reporter assays, we examined the cytotoxicity of tested compounds in AZ-AHR, AZ-GR and LS180 cell lines. For this purpose, the cells were incubated for 24 h with individual enantiomers of atorvastatin, fluvastatin and rosuvastatin at concentrations ranging from 100 pM to 100 μM. The vehicle was DMSO (0.1% v/v). After the treatment, a conventional MTT test was performed and the values of IC50 were calculated.
(§2) Fig 2 Cytotoxicity of statin enantiomers in human cancer cell lines. […] After the treatment, a conventional MTT test was performed and absorbance was measured at 540 nm. Treatments were performed in triplicates.

On the set-up of data set [6]: method as in PMID 19033449, PMID 16480934. The following applies: humans, ratio to (+)3R,5S-fluvastatin; cited from earlier work.
Data set [7] is described as follows: MTT cytotoxicity test in AZ-AHR cells. Type of data set: cell-based. To be noted: human. On the procedure: as §1, §2
Data set [8] can be described thus: MTT cytotoxicity test in LS180 cells. Type of data set: cell-based. To be noted: human, LS180 colon adenocarcinoma cells. How it is done:
as §1, §2

Protocol for CYP2A6 mRNA: (§6) Cells were cultured in serum-free medium.
Measurements were performed in triplicates.
Protocol for CYP3A4 protein: as §6
Total protein extracts were prepared from cells cultured on 6-well plates. Cells were washed twice with ice-cold PBS and scraped into 1 ml of PBS. The suspension was centrifuged (4500 rpm/5 min/4°C) and the pellet was resuspended in 150 μl of ice-cold lysis buffer (150 mM NaCl; 10 mM Tris pH 7.2; 0.1% (w/v) SDS; anti-protease cocktail, 1% (v/v) Triton X-100; anti-phosphatase cocktail, 1% (v/v) sodium deoxycholate; 5 mM EDTA). The mixture was vortexed and incubated for 10 min on ice and then centrifuged (15000 rpm/13 min/4°C). Supernatant was collected and the protein content was determined by the Bradford reagent.
All reagents used for running the simple western by Sally Sue ^TM were obtained from ProteinSimple (San Jose, California) and prepared according to manufacturer’s recommendations (http://www.proteinsimple.com/sally_sue.html). […] Antibody diluent, goat anti-rabbit secondary antibody, and goat anti-mouse secondary antibody were purchased from ProteinSimple. The capillaries, containing a proprietary UV-activated chemical linked reagent and 384-well plates were obtained from ProteinSimple. […] The resulting chemiluminescent signal was detected and quantified by the Compass Software version 2.6.5.0 (ProteinSimple). For quantitative data analysis, the CYPs signals were normalized to β-actin as a loading control.

For `CC(C)c1nc(N(C)S(C)(=O)=O)nc(-c2ccc(F)cc2)c1C=CC(O)CC(O)CC(=O)O` (centres unmarked) [3R5S-rosuvastatin], the “effect on rifampicin-inducible PXR transcriptional activity, in words” value in data set [1] (antagonist mode, RIF 10 μM, 24 h) is “inverse U-shaped curve”. The “induction of CYP2A6 mRNA, in words” value in the data set with CYP2A6 mRNA is “weak increase of CYP2A6 mRNA in culture HH61; also recorded: induced CYP2A6 mRNA”. Further, the “induction of CYP3A4 protein, in words” value in the data set on CYP3A4 protein was “significant induction of CYP3A4 protein”. For the same molecule, in data set [2], the 50% effective concentration (EC50) is over 100 µM. In data set [3] (DEX 100 nM), the “effect on dexamethasone-inducible transcriptional activity of GR, in words” value is recorded as “decreased”. The IC50 in [3] (in presence of DEX 100 nM) is 89.7 ± 12.6 µM; in data set [4] it was 53.5 ± 60.4 µM. Also, the “effect on TCDD-inducible transcriptional activity of AhR, in words” value in data set [4] (antagonist mode, TCDD 5 nM) was “dose-dependently inhibited”.
As to `CC(C)n1c(C=CC(O)CC(O)CC(=O)O)c(-c2ccc(F)cc2)c2ccccc21` (centres unmarked) [3S5R-fluvastatin, 3S5R- fluvastatin], the “Ki values of CYP2C9 inhibition compared to (+)3R,5S-fluvastatin” value with CYP2C9 is on record as “four to five times higher”. Further, the 50% inhibitory concentration (IC50) at 24 h in data set [5], in data set [7] and in [8] was over 100 µM in each case. The “AUC value compared to (+)3R,5S-fluvastatin” value in data set [6] is 1.8 times. Further, the “efficacy: average induction of PXR luciferase activity” value in data set [1] (100 μM concentration, agonist mode) was “approx. 5 fold”. Besides, the EC50 in [2] was determined as 14.4 ± 4.2 µM. The half-maximal inhibitory concentration (IC50) in data set [4] is over 100 µM. Besides, the “effect on AhR-dependent luciferase activity (agonist mode), in words” value in [4] (agonist mode) was “slightly increased luciferase activity”.
